Reference: paper PMC9259545, “Impact of poly-arginine peptides R18D and R18 on alteplase and tenecteplase thrombolysis in vitro, and neuroprotective stability to proteolysis” (Journal of Thrombosis and Thrombolysis, 2022)
Non-standard residues stand in square brackets, D forms with d. Residues, ends and D or L forms follow the SMILES beside them.

Legend:
tPA or TNK = type: biochemical, human; settings: range over peptide concentrations 0.25-16 µM and both thrombolytics; 1-h assay
Method: We utilised a high throughput 96-well plate thrombolysis assay (“halo clot assay”) based on the procedure developed by Bonnard et al.. To reduce assay components the halo thrombus formation procedure was modified by replacing the original thrombotic mixture consisting of recombinant tissue factor and synthetic phospholipids reconstituted in 30 mM calcium, with thrombin, and reducing the pro-thrombotic volume (i.e., thrombin) from 5 to 3 µL and blood volume from 25 to 12 µL. Another modification to simplify clot formation consisted of adding the thrombin (3 µL; 500 nM in saline) to one side of the well and 12 µL of blood to the opposite side of well, before using a heat stretched Pasteur pipette with sealed end to mix the two liquids together using 4 to 5 circular motions around the edge of the well (halo clot). The original methodology involved adding the 5 μL of the clotting mixture to the edge of the well, and then using a micropipette to slowly release the 25 μL of blood to the edge of the well while at the same time maintaining a circular motion. Plates were incubated in a humidified 37 °C incubator for 1 h before use in the thrombolysis assay.
The thrombolysis assay involved adding 30 µL of Tris buffer (50 mM Tris–HCl, 100 mM NaCl, pH 7.4) with or without peptide followed by 55 µL Tris buffer containing tPA or TNK (5 nM final concentration) and 50% human plasma (final plasma concentration during thrombolysis 27.5%). The final concentration of peptide during thrombolysis ranged from 0.25 to 16 µM (note: an intravenous dose of R18D at 350 nmol/kg, which is likely to be neuroprotective achieves a Cmax of 0.7–0.9 µM in healthy male and female rats; unpublished observation). […] Following the addition of tPA or TNK into the wells, clot lysis was monitored over a 1-h period at 37 °C using a plate reader (Cytation5, BioTek, USA) by measuring absorbance at 510 nm every 1 min immediately after orbital shaking (205 rpm for 5 s). Controls consisted of wells with no thrombin (100% clot lysis; L100%) and wells with no tPA or TNK (0% clot lysis; L0%). At the 1-h time point, the percentage of thrombolysis (%T) in tPA or TNK treated samples (LTX) was calculated by transforming absorbance values based on the formula: % T = (LTX) − (L0%)/(L100%) − (L0%) × 100. In addition, during the 1-h period of clot lysis lag time and maximal activity (also known as maximum velocity or Vmax) of the thrombolysis reaction were calculated. The lag time is defined as the time interval between the first absorbance reading (time = 0) and the line of maximum slope of the thrombolysis reaction. The maximal activity is calculated from the maximum slope over the time course of the assay and reflects the capacity of an enzyme to catalyse a reaction (i.e., thrombolysis), with higher values representing higher catalytic activity (i.e., tPA/TNK induced plasmin thrombolysis).
For each thrombolysis assay, replicates for control wells (L0% and L100%) and tPA or TNK only treated wells consisted of n = 4–8. Replicates for tPA or TNK and peptide treated wells consisted of n = 4. For data analysis and graphical representations of the results, data from three independent thrombolytic assays were pooled. Studies consisted of R18D, R18 and NA-1 examined at the 0.5, 1, 2, 4, 8 or 16 µM concentrations performed concurrently on the same 96-well plate, in respective order. […]

tPA = target: T1, tPA (Homo sapiens, UniProt P00750); assay: Neuroprotective proteolytic stability after pre-incubation with tPA (glutamic acid excitotoxicity model, MTS); type: in vitro ADME; settings: 1 or 2 h or overnight (22-24 h)
T1 construct: purchased Boehringer Ingelheim, Germany 10 mg vial
Method: Neuronal cultures were maintained in CO2 incubator.
tPA (1000 µg/mL) or TNK (5000 µg/mL) resuspended in water (Baxter) were used to prepare 10 µg/mL (170 nM; note this is 34 times the concentration used in thrombolysis assay) stocks in MEM/2% B27 supplement (MEM/B27).
All data are presented as mean ± standard deviation (SD).

trypsin (TrypLE Express) = trypsin (TrypLE Express) (Fusarium oxysporum, UniProt P35049)
Sequence of trypsin (TrypLE Express) (P35049 25-248): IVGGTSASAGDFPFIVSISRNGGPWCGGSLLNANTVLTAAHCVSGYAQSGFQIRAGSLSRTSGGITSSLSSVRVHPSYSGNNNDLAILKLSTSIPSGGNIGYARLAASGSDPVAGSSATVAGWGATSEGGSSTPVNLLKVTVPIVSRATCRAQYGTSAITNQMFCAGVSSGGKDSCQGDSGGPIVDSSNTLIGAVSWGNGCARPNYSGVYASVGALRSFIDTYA
Method: Rat primary cortical cultures were established from embryonic day 18–19 Sprague–Dawley rats (Animal Resources Centre, WA, Australia). Briefly, cortical tissue was dissociated in 2 mL Hanks balanced salt solution (HBBS; Life Technologies, Australia) supplemented with 1.3 mM L-cysteine, 10 U/mL papain (Sigma-Aldrich, Australia) and 50 U/mL DNase (Sigma-Aldrich) by trituration with a fire-polished pipette. Dissociated neurons were transferred to a 15-mL tube containing 13 mL of cold Dulbecco’s modified Eagle’s medium (DMEM; Life Technologies)/10% horse serum (Life Technologies) and centrifuged for 4 min at 300×g. Neurons were gently resuspended in 1.5 mL of cold Neurobasal (NB; Life Technologies)/2% B27 supplement (B27; Life Technologies) and the neuronal cell concentration adjusted to 50,000 neurons/70 μL and 70 μL inoculated into each well of a 96-well microtiter plate (Nunc, USA) pre-treated wells. Pre-treated wells were coated with 50 μL of poly-D-lysine (50 μg/mL; 70–150 K; Sigma-Aldrich) for 2–3 h at room temperature before being replaced with 50 μL of NB/B27, 4% fetal bovine serum (Life Technologies), 1% horse serum, 62.5 μM glutamic acid, 25 μM 2-mercaptoethanol, 30 μg/mL penicillin and 50 μg/mL streptomycin and placed in a CO2 incubator (5% CO2, 95% air balance, 98% humidity, 37 °C) prior to seeding with neurons. Neuronal cultures were maintained in CO2 incubator. On day in vitro four, 60 µL fresh NB/B27 containing the mitotic inhibitor cytosine arabinofuranoside (final concentration 0.15 μM; Sigma-Aldrich) was added and neuronal culture were used on day in vitro 11 to 13.
As an alternative to trypsin, TrypLE Express (Thermo Fischer Scientific, Australia) a synthetic serine protease with trypsin-like activity was used. […] Hereafter, TrypLE Express is referred to as trypsin.
Trypsin solution was added to an equal volume of MEM/2% B27 (T:MEM/B27). […] Following the incubation, 50 µL of the T:MEM/B27 or HBSS:MEM/B27 peptide solution was used to treat neuronal culture as described below for the glutamic acid excitotoxicity model. […]

T1 sequence (P00750 36-562): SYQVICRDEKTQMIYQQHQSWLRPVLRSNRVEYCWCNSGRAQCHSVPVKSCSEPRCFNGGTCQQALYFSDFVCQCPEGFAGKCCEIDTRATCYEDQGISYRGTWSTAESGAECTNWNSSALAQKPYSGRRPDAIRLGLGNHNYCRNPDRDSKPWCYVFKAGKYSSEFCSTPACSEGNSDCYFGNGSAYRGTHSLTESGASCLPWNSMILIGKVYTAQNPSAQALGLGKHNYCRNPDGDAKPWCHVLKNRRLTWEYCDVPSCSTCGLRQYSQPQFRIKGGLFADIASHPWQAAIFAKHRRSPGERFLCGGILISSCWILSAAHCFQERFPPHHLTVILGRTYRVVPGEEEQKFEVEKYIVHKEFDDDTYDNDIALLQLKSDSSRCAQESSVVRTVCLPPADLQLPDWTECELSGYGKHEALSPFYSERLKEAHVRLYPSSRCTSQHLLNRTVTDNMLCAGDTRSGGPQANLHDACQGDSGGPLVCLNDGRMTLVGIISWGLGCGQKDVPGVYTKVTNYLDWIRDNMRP

## N=C(N)NCCC[C@@H](N)C(=O)N[C@H](CCCNC(=N)N)C(=O)N[C@H](CCCNC(=N)N)C(=O)N[C@H](CCCNC(=N)N)C(=O)N[C@H](CCCNC(=N)N)C(=O)N[C@H](CCCNC(=N)N)C(=O)N[C@H](CCCNC(=N)N)C(=O)N[C@H](CCCNC(=N)N)C(=O)N[C@H](CCCNC(=N)N)C(=O)N[C@H](CCCNC(=N)N)C(=O)N[C@H](CCCNC(=N)N)C(=O)N[C@H](CCCNC(=N)N)C(=O)N[C@H](CCCNC(=N)N)C(=O)N[C@H](CCCNC(=N)N)C(=O)N[C@H](CCCNC(=N)N)C(=O)N[C@H](CCCNC(=N)N)C(=O)N[C@H](CCCNC(=N)N)C(=O)N[C@H](CCCNC(=N)N)C(=O)O [R18D] (H-[dR][dR][dR][dR][dR][dR][dR][dR][dR][dR][dR][dR][dR][dR][dR][dR][dR][dR]-OH)
tPA or TNK
  Increase in lag time (time to the commencement of thrombolysis): 0 to 9.9 min
tPA; inferred from retained neuroprotection, peptide 2 µM, tPA 170 nM
  Resistance to degradation by tPA: resistant to degradation
tPA; peptide 2 µM in MEM/B27 with tPA 10 µg/mL (170 nM), 37 °C CO2 incubator, then rat cortical neurons, glutamic acid 100 µM 5 min, MTS viability at 20-24 h, N = 4-8
  Neuroprotective efficacy after incubation with tPA: a similar and a high level of neuroprotective efficacy
Trypsin (TrypLE Express)
  Resistance to degradation by trypsin: resistant to degradation by trypsin
Trypsin (TrypLE Express); peptide 2 µM in 50% TrypLE Express : MEM/B27, 1 or 2 h or overnight (22-24 h), 37 °C CO2 incubator, then rat cortical neurons, glutamic acid 100 µM 5 min, MTS viability at 20-24 h, N = 4-8
  High-level neuroprotective efficacy after incubation with trypsin: displayed a high-level neuroprotective efficacy
